According to article PMC5882848, “Structural basis of interaction between dimeric cyclophilin 1 and Myb1 transcription factor in Trichomonas vaginalis” (Scientific Reports, 2018):
Entries after “also recorded” stand apart in the source; their conditions may differ.

Tests used:
[1] = target: FITC-labeled Myb1^104–111 peptide (Trichomonas vaginalis); experiment: fluorescence polarisation
[2] = target: Cyclophilin 1 (TvCyP1) of Trichomonas vaginalis (Trichomonas vaginalis); experiment: SEC-MALS; 300 μg TvCyP1 (3 mg/mL) on ENrich SEC 70 column; 20 mM monosodium phosphate, 50 mM NaCl, 0.5 mM NaN3, pH 6.0, 25 °C
[3] = target: Cyclophilin 1 (TvCyP1) of Trichomonas vaginalis (Trichomonas vaginalis); experiment: AUC; sedimentation velocity, 29 μM TvCyP1 (legend: 30 μM), 20 °C, 50,000 rpm; 20 mM monosodium phosphate, 50 mM NaCl, 0.5 mM NaN3, pH 6.0; Sedfit
cyclophilins = settings: binding to the active site; cited from earlier work
Source text: Catalytically active cyclophilins with a single cyclophilin domain reported till now are monomeric in nature.

TvCyP1 = experiment: NMR ROESY cis/trans isomerization (PPIase) of P107 in Myb1^104–111; type: biochemical, Trichomonas vaginalis
Method: ^1H-TOCSY, ^1H-COSY and ^1H-NOESY were performed at 300 K with a mixing time of 75 ms (TOCSY) and 300 ms (NOESY) on the Myb1^104–111 peptide to complete the assignment of proton resonances. The peptide was dissolved in 20 mM monosodium phosphate, 50 mM NaCl, 0.5 mM NaN3 (pH 6.0) to obtain a concentration of 2 mM. All ROESY experiments were performed at 300 K with 300 ms mixing time. […]

parasite = settings: cited from earlier work
Source text: In most cases, the biological substrates of these cyclophilins are unknown and extensive structural studies on cyclophilin- substrate interactions have not been reported.

isoforms of cyclophilins = test system: isoforms of cyclophilins; parameters: method as in PMID 20676357; settings: cited from earlier work
[4] = cited from earlier work
Source text: Nuclear translocation of Myb1 is an important step regulating the expression of disease causing ap65–1 gene. […] Moreover, CsA is not specific to any of the isof ...

| Compound | Kd [1] | stoichiometry N [2] | stoichiometry N [3] | inhibition of PPIase activity of cyclophilins (cyclophilins) | inhibition of TvCyP1 isomerase activity (TvCyP1; ROESY, 300 ms mixing time, 300 K, pH 6.0, CsA 22 μM (1.0 molar equivalent), 4.4 mM Myb1^104–111, 22 μM TvCyP1) | inhibition of Myb1^104–111 binding to TvCyP1 active site (TvCyP1; from ROESY experiments, CsA) | anti-parasitic activity (parasite) | isoform specificity (isoforms of cyclophilins) | immunosuppressive activity [4] |
| --- | --- | --- | --- | --- | --- | --- | --- | --- | --- |
| Cyclophilin 1 (TvCyP1) of Trichomonas vaginalis (enzyme) | 16.8 µM | 2 | 2 | – | – | – | – | – | – |
| CC[C@H]1C[C@H](C)[C@@]2(NC1=O)O[C@@H](C[C@H](O)[C@@H](C)CC/C=C/C=C(\C)[C@@H]1C/C=C/C=C/[C@H](O)[C@H](C)[C@@H](O)[C@@H](CCC(C)=O)C(=O)N[C@@H](C(C)C)C(=O)N[C@@H](Cc3cccc(O)c3)C(=O)N3CCC[C@H](N3)C(=O)O1)[C@H](C)[C@H](O)[C@@H]2C [sanglifehrin A (SfA), sanglifehrin A] | – | – | – | PPIase activity of cyclophilins can be inhibited | – | – | – | – | – |
| cyclosporin A [CsA] | – | – | – | PPIase activity of cyclophilins can be inhibited | hindered catalysis; also recorded: loss of the exchange cross-peaks between cis and trans resonances | can inhibit Myb1^104–111 binding to the active site | have been found with anti-parasitic activity | not specific to any of the isoforms of cyclophilins | deleterious effect of its immunosuppressive activity |
